Measured values taken from patent US8969350B2, “Pharmaceutical product comprising a p38 kinase inhibitor and a second active ingredient” (Astrazeneca AB, priority 2008, dated 2015).
Where a name gives a salt, the structure may show the parent alone. Read-outs that look alike come from different tables or passages of the source.

How the values were obtained:
guinea pig trachea [1] = assay: Guinea-pig isolated tracheal ring, Protocol A: relaxation of methacholine pre-contracted rings; details: mean ± s.e. mean, n=4; for EC50: Cavia porcellus
Experimental: (§1) Guinea-pigs (300-600 g) were killed by cervical dislocation and the trachea removed. After clearing the adherent connective tissue, the trachea was cut into segments (2-3 cartilage rings in width) and suspended in 10 ml organ baths containing modified Krebs' solution (mM; NaCl, 90; NaHCO3, 45; KCl, 5; MgSO4.7H2O, 0.5; Na2HPO4.2H2O, 1; CaCl2, 2.25; glucose, 10; pH 7.4, gassed with 5% CO2, 95% O2 at 37° C.). The tracheal rings were attached to an isometric force transducer for the measurement of isometric tension. The tissues were washed and a force of 1 g was applied to each tissue.
(§2) Protocol A: The rings were pre-contracted with methacholine (1 μM) and a cumulative (0.3 nM-3 μM) isoprenaline concentration effect curve constructed. The rings were washed and either Compound A (4 nM) or vehicle was added. The rings were then contracted with a second concentration of methacholine (1 μM). Once the contraction had reached a plateau cumulative concentration response curves to Compound C (0.1 nM-1 μM), Compound E (1 nM-1 μM) or Compound H (0.1 nM-1 μM) were constructed. Data were collected using the ADInstruments chart4 software, the maximum tension generated at each concentration of agonist was recorded and the response expressed as percentage relaxation (mean±s.e.mean). The data was fitted to a four parameter logistic and a potency value (pEC50) generated (expressed as mean±s.e.mean). Protocol B: A cumulative concentration effect curve to methacholine (3 nM-30 μM) was constructed and then the tissue was washed. […] A second extended cumulative concentration response curve to methacholine was constructed (3 nM-1 mM). Data were collected using the ADInstruments chart4 software, the maximum tension generated at each concentration of agonist was recorded and the results were expressed as percentage of the maximum response measured in the first curve.

guinea pig trachea [2] = assay: Guinea-pig isolated tracheal ring, Protocol B: shift of methacholine concentration response curve (apparent pA2); details: mean ± s.e. mean, n=4; for pA2 in the presence of Compound A: apparent pA2 vs methacholine in the presence of Compound A (4 nM); for pA2 value: apparent pA2 vs methacholine, compound alone, Schild plot slope of 1 assumed
Experimental: as §1
as §2, with “Once the contraction had reached a plateau cumulative concentration response curves to Compound C (0.1 nM-1 μM), Compound E (1 nM-1 μM) or Compound H (0.1 nM-1 μM) were constructed.” left out

[3] = test system: LPS stimulated TNFα production from human PBMC; assay: Inhibition of LPS-induced TNFα production in human peripheral blood mononuclear cells (FLISA); format: cell-based; details: Compound A alone, n=17, read-out: pIC50 for inhibition of LPS-induced TNFα production from human PBMC (converted)
Experimental: After the pre-incubation period, the cells were then incubated with LPS (1 μg/mL) for 4 hr at 37° C. to induce TNFα production. The total assay volume was 200 μL. At the end of the incubation period, 25 μL of the culture supernatant was analysed to quantify the TNFα released using a Flourescence-linked immunosorbance assay (FLISA). Fluorescence levels were read on an FMAT plate reader. Inhibition curves were fitted using a 4-parameter logistic equation in a non-linear curve fitting routine and activity was expressed as pIC50.

[4] = Water uptake by gravimetric vapour sorption (GVS); format: physicochemical; details: between RH of 0%-80%, as measured by GVS
Experimental: GVS profiles were measured using a Dynamic Vapour Sorption DVS-1 instrument. The solid sample ca. 1-5 mg was placed into a glass vessel and the weight of the sample was recorded during a dual cycle step method (40 to 90 to 0 to 90 to 0% relative humidity (RH), in steps of 10% RH).

[5] = compound alone (vehicle), relaxation of rings contracted with methacholine 1 μM, read-out: pEC50 value (converted)

Compound: O=C(CCNCCc1cccc(F)c1)N(CCNCCc1ccc(O)c2[nH]c(=O)sc12)C1CCCCC1 [Compound H, N-Cyclohexyl-N^3-[2-(3-fluorophenyl)ethyl]-N-(2-{[2-(4-hydroxy-2-oxo-2,3-dihydro-1,3-benzothiazol-7-yl)ethyl]amino}ethyl)-β-alaninamide di-D-mandelate]
- EC50 (guinea pig trachea [1]; [5]): 0.631 nM
- pEC50 in the presence of Compound A (guinea pig trachea [1]; in the presence of Compound A (4 nM), rings contracted with methacholine 1 μM): 9.2±0.10

Compound: C[C@@](C(=O)O[C@H]1C[N+]2(CCc3ccc(F)cc3)CCC1CC2)(c1ccccc1)N1CCCCC1 [Compound J, (R)-1-[2-(4-fluoro-phenyl)-ethyl]-3-((S)-2-phenyl-2-piperidin-1-yl-propionyloxy)-1-azonia-bicyclo[2.2.2]octane 4-methylbenzenesulfonate]
- pA2 in the presence of Compound A (guinea pig trachea [2]; 4-methylbenzenesulfonate): 10.1±0.10
- pA2 value (guinea pig trachea [2]; 4-methylbenzenesulfonate): 9.9±0.12

Compound: CNCCOc1ccccc1C1(Nc2nccn(-c3cc(C(=O)NC4CC4)cc(F)c3C)c2=O)CC1 [Compound A, N-cyclopropyl-3-fluoro-4-methyl-5-[3-[[1-[2-[2-(methylamino)ethoxy]phenyl]cyclopropyl]amino]-2-oxo-pyrazin-1-yl]benzamide]
- IC50 [3]: 7.94 nM

Compound: O=C(O[C@H]1C[N+]2(CCCOc3ccccc3)CCC1CC2)C(O)(c1cccs1)c1cccs1 [Compound D, [(3R)-1-(3-phenoxypropyl)quinuclidin-1-ium-3-yl]2-hydroxy-2,2-bis(2-thienyl)acetate bromide, reference compound]
- pA2 in the presence of Compound A (guinea pig trachea [2]): 10.5±0.07
- pA2 value (guinea pig trachea [2]): 10.7±0.09

Compound: O=C(C[N+]12CCC(CC1)[C@@H](OC(=O)C1(c3ccccc3)CCCCCC1)C2)Nc1ccccn1 [Compound K, ((R)-3-(1-phenyl-cycloheptanecarbonyloxy)-1-(pyridin-2-ylcarbamoylmethyl)-1-azonia-bicyclo[2.2.2]octane bromide]
- pA2 in the presence of Compound A (guinea pig trachea [2]): 9.9±0.15
- pA2 value (guinea pig trachea [2]): 9.9±0.10

Compound: CNCCOc1ccccc1C1(Nc2nccn(-c3cc(C(=O)NC4CC4)cc(F)c3C)c2=O)CC1 [preparation 1 crystalline form A, N-Cyclopropyl-3-fluoro-4-methyl-5-[3-[[1-[2-[2-(methylamino)ethoxy]phenyl]cyclopropyl]amino]-2-oxo-1(2H)-pyrazinyl]-benzamide Crystalline Form A]
- water uptake [4]: 0.4%

Compound: CCN(CC)CCN(CCNCCc1ccc(O)c2[nH]c(=O)sc12)C(=O)CCOCCc1cccc2ccccc12 [Compound C, N-[2-(diethylamino)ethyl]-N-(2-{[2-(4-hydroxy-2-oxo-2,3-dihydro-1,3-benzothiazol-7-yl)ethyl]amino}ethyl)-3-[2-(1-naphthyl)ethoxy]propanamide dihydrobromide]
- EC50 (guinea pig trachea [1]; [5]): 10 nM
- pEC50 value (guinea pig trachea [1]; compound alone (vehicle), relaxation of rings contracted with methacholine 1 μM, dihydrobromide): 8.0 ± 0.05

Compound: CCc1cc2c(cc1CC)CC(NC[C@H](O)c1ccc(O)c3[nH]c(=O)ccc13)C2 [Compound E, 5-[(1R)-2-[(5,6-diethylindan-2-yl)amino]-1-hydroxy-ethyl]-8-hydroxy-1H-quinolin-2-one maleate, reference compound]
- EC50 (guinea pig trachea [1]; [5]): 15.8 nM
- EC50 (guinea pig trachea [1]; in the presence of Compound A (4 nM), rings contracted with methacholine 1 μM, read-out: pEC50 in the presence of Compound A (converted)): 20 nM

Compound: C[N+]1(C)[C@@H]2C[C@@H](OC(=O)C(O)(c3cccs3)c3cccs3)C[C@H]1[C@@H]1O[C@@H]12 [Compound M, (1R,2R,4S,5S,7S)-7-{[hydroxy(dithiophen-2-yl)acetyl]oxy}-9,9-dimethy-3-oxa-9-azoniatricyclo[3.3.1.0~2,4~]nonane bromide, reference compound]
- pA2 in the presence of Compound A (guinea pig trachea [2]): 12.0±0.08
